# Data reported in patent US9487530B2, “Transient protection of normal cells during chemotherapy” (G1 Therapeutics, Inc., priority 2013, dated 2016).
# Tests used:
# [1] = Mouse pharmacokinetics, oral gavage and intravenous; type: in vivo
# [2] = Metabolic stability in liver microsomes; type: in vitro ADME; conditions: each of the species tested (human, monkey, dog, rat, mouse); 1 uM
# Experimental: Human, mouse, and dog liver microsomes were purchased from Xenotech, and Sprague-Dawley rat liver microsomes were prepared by Absorption Systems. The reaction mixture comprising 0.5 mg/mL of liver microsomes, 100 mM of potassium phosphate, pH 7.4, 5 mM of magnesium chloride, and 1 uM of test compound was prepared. The test compound was added into the reaction mixture at a final concentration of 1 uM. An aliquot of the reaction mixture (without cofactor) was incubated in shaking water bath at 37 deg. C. for 3 minutes. The control compound, testosterone, was run simultaneously with the test compound in a separate reaction. The reaction was initiated by the addition of cofactor (NADPH), and the mixture was then incubated in a shaking water bath at 37 deg. C. Aliquots (100 μL) were withdrawn at 0, 10, 20, 30, and 60 minutes for the test compound and 0, 10, 30, and 60 minutes for testosterone. […] Test compound samples were analyzed using the Orbitrap high resolution mass spectrometer to quantify the disappearance of parent test compound and detect the appearance of metabolites. […] Half-lives were calculated using GraphPad software, fitting to a single-phase exponential decay equation.
# When calculated half-life was longer than the duration of the experiment, the half-life was expressed as >the longest incubation time. The calculated half-life is also listed in parentheses. […]
# HSPCs = experiment: Bone marrow HSPC proliferation by EdU incorporation and flow cytometry; type: in vivo, mouse
# Experimental: Mice were then sacrificed at the indicated times (0, 12, 24, 36, or 48 hours following compound administration), and bone marrow was harvested (n=3 mice per time point), as previously described (Johnson et al. J. Clin. Invest. (2010) 120(7), 2528-2536). Four hours before the bone marrow was harvested, mice were treated with 100 μg of EdU by intraperitoneal injection (Invitrogen). Bone marrow mononuclear cells were harvested and immunophenotyped using previously described methods and percent EdU positive cells were then determined (Johnson et al. J. Clin. Invest. (2010) 120(7), 2528-2536). In brief, HSPCs were identified by expression of lineage markers (Lin−), ScaI (S+), and c-Kit (K+).
# Four hours before animals were sacrificed and the bone marrow was harvested, mice were treated with 100 μg of EdU by intraperitoneal injection. Three mice per group were sacrificed at 12 hours and the remaining three animals per group were sacrificed at 24 hours. Results are shown in FIG. 6A as the ratio of EdU positive cells for treated animals at 12 or 24 hour time points compared to control.
# Further experiments were completed with Compound T examining dose response and longer periods of compound treatment. […] […].
# Both compounds were administered at 150 mg/kg by oral gavage. One hour prior to harvesting bone marrow, EdU was IP injected to label cycling cells. Bone marrow was harvested at 12, 24, 36, and 48 hours after compound treatment and the percentage of EdU positive HSPC cells was determined at each time point.
# [3] = system: A2058 cells (CDK4/6-independent cell line); experiment: Cell cycle arrest (propidium iodide), A2058; type: cell-based; conditions: 300 nM for 24 hours
# Excerpt: To test the ability of Cdk4/6 inhibitors to induce a clean G1-arrest, a cell based screening method was used consisting of two Cdk4/6-dependent cell lines (tHS68 and WM2664; Rb-positive) and one Cdk4/6-independent (A2058; Rb-negative) cell line. […] At the conclusion of the experiment, cells were harvested, fixed, and stained with propidium iodide (a DNA intercalator), which fluoresces strongly red (emission maximum 637 nm) when excited by 488 nm light. Samples were run on Dako Cyan flow cytometer and >10,000 events were collected for each sample. Data were analyzed using FlowJo 2.2 software developed by TreeStar, Inc.
# [4] = system: Rb-positive cell line (WM2664 or tHS68); experiment: EdU proliferation, RB-intact Cdk4/6-dependent cell line; type: cell-based; conditions: 24 hours treatment
# Experimental: (§1) The effect of Cdk4/6 inhibition on proliferation was measured by EdU incorporation. An RB-intact, Cdk4/6-dependent cell line (WM2664 or tHS68) and a panel of RB-negative SCLC cell lines (H69, H82, H209, H345, NCI417, or SHP-77) were analyzed for growth inhibition by the various CDK4/6 inhibitors.
# [5] = system: RB-negative SCLC cell lines (H69, H82, H209, H345, NCI417, SHP-77); experiment: EdU proliferation, RB-negative SCLC cell lines; type: cell-based, human; conditions: 24 hours treatment
# Experimental: as §1
# [6] = system: whole bone marrow, HSPC and differentiated hematopoietic cells; experiment: EdU incorporation in mouse hematopoietic cell lineages; type: in vivo; conditions: 150 mg/kg oral gavage; for inhibition at 150 mg/kg: Mus musculus
# Experimental: Ten-hours later, all mice were given a single i.p. injection of 100 mcg EdU (5-ethynyl-2′-deoxyuridine) to label cells in S-phase of the cell cycle. All treated mice were euthanized 2 hours after EdU injection, bone marrow cells were harvested and processed for flow cytometric analysis of EdU-incorporation (FIG. 13).
# [7] = system: human renal proximal tubule cells; experiment: gamma-H2AX and caspase 3/7 in renal proximal tubule cells with cisplatin; type: cell-based
# Experimental: Normal renal proximal tubule epithelial cells were obtained from American Type Culture Collection (ATCC, Manassas, Va.). Cells were grown in an incubator at 37° C. in a humidified atmosphere of 5% CO2 in Renal Epithelial Cell Basal Media (ATCC) supplemented with Renal Epithelial Cell Growth Kit (ATCC) in 37° C. humidified incubator. […] For the γ-H2AX assay, cells were fixed, permeabilized, and stained with anti-γ-H2AX as per the γ-H2AX Flow Kit (Millipore) and quantitated by flow cytometry. Data was analyzed using FlowJo 2.2 software developed by TreeStar, Inc. Caspase 3/7 activation was measured using the Caspase-Glo 3/7 Assay System (Promega, Madison, Wis.) by following the manufacturer's instructions.
smiles,measurement,setting,value
"CN1CCN(c2ccc(Nc3ncc4cc5n(c4n3)C3(CCCCC3)CNC5=O)nc2)CC1 [T, 2′-((5-(4-methylpiperazin-1-yl)pyridin-2-yl)amino)-7′,8′-dihydro-6′H-spiro[cyclohexane-1,9′-pyrazino[1′,2′:1,5]pyrrolo[2,3-d]pyrimidin]-6′-one]",F (oral bioavailability),[1],80%
same,half-life in liver microsomes,[2],shorter half-life than PD0332991
same,EdU incorporation into HSPCs compared to control,"HSPCs; 150 mg/kg oral gavage, 12 and 24 hours, FIG. 6A",reduction in EdU incorporation at 12 hours which was starting to return to normal at 24 hours
same,time by which proliferation of HSPCs resumes,"HSPCs; single 150 mg/kg oral dose, FIG. 7",≤ 24 h
same,S-phase peak,[3],does not cause a loss of the S-phase peak
same,proliferation (cells in S-phase by EdU),[4],inhibits
same,growth (cells in S-phase by EdU),[5],does not affect the growth
same,reduction in EdU+ cell frequencies,[6]; B cell progenitors,> 80%
same,reduction in EdU+ cell frequency,"[6]; CMP, GMP, MEP and CLP",76-92%
same,reduction in EdU+ cell frequency,[6]; Mac1+G1+ myeloid cells,46%
same,reduction in EdU+ cell frequencies,[6]; T cell progenitors,> 99%
same,reduction in EdU+ cell frequency,[6]; Ter119+ erythroid cells,58%
same,reduction of EdU+ cell frequency,[6]; unfractionated whole bone marrow cells,~70%
same,inhibition at 150 mg/kg,"[6]; Hematopoietic stem cell, hematopoietic stem cells (HSC)",74%
same,inhibition at 150 mg/kg,[6]; multipotent progenitors (MPP),90%
same,caspase 3/7 activation,"[7]; cisplatin 25 uM, 50 uM, or 100 uM",dose-dependent reduction in caspase 3/7 activation
same,DNA damage as measured by gamma-H2AX formation,[7]; in combination with 25 uM cisplatin,attenuated DNA damage
